Test results: patent US11964953B2, “Substituted aminothiazoles as DGKzeta inhibitors for immune activation” (Bayer Aktiengesellschaft, priority 2020, dated 2024)

target: human DGKζ (Homo sapiens (Human), UniProt Q13574); assay: Human DGKζ kinase activity inhibition assay (ADP-Glo); format: biochemical; details: in vitro human DGKζ kinase activity inhibition assay; read-out: IC50
How it was run: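 ADP-Glo luminescence, reflecting ADP produced, served as the readout of activity. Full-length human DGKζ, FLAG-tagged at the C-terminus and insect-cell expressed, was used; lipid substrate mix was sonicated with octyl-β-D-glucopyranoside in 50 mM MOPS pH 7.4.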

Chain of human DGKζ (Q13574 other isoform, or with tags, fused parts or gaps): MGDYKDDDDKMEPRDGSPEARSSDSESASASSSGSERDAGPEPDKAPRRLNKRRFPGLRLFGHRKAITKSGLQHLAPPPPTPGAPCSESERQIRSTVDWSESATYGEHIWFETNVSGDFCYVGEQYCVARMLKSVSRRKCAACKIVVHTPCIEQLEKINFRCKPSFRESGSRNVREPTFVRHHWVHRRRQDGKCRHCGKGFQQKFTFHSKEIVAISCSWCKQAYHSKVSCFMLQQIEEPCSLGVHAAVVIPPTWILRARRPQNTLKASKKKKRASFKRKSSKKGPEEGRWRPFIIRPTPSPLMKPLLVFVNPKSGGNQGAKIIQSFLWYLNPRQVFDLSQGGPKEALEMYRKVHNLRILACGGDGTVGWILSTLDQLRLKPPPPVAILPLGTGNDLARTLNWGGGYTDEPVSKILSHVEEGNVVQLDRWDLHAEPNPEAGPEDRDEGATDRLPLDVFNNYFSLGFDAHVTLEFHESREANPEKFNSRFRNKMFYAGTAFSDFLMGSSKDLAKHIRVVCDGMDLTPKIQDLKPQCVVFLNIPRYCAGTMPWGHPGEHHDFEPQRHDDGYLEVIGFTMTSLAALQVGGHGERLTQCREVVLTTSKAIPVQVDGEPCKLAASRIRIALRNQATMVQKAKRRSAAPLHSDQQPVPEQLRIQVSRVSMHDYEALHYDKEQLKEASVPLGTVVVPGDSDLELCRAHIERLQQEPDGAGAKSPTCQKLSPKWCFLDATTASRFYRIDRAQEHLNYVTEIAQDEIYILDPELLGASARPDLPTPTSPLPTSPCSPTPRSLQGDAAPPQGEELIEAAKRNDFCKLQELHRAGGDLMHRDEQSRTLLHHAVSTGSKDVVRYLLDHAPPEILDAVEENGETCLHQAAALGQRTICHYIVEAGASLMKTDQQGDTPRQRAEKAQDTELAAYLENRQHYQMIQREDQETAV

Row | IC50 | Structure (SMILES)
1 | 0.036 µM | CC(C(N)=O)N(c1ccc(F)cc1)c1nc(N)c(C(=O)c2ccc(N3CCCCC3)nc2)s1 (racemic) [Example 283, rac-2-(N-[4-amino-5-[6-(1-piperidyl)pyridine-3-carbonyl]thiazol-2-yl]-4-fluoro-anilino)propanamide]
2 | 0.033 µM | CC(C(N)=O)N(c1ccc(F)cc1)c1nc(N)c(C(=O)c2ccc(N3CCC(F)(F)CC3)nc2)s1 (racemic) [Example 284, rac-2-(N-[4-amino-5-[6-(4,4-difluoro-1-piperidyl)pyridine-3-carbonyl]thiazol-2-yl]-4-fluoro-anilino)propanamide]
3 | 0.282 µM | CC(C(N)=O)N(c1ccc(F)cc1)c1nc(N)c(C(=O)c2ccc(OCCO)cc2)s1 (racemic) [Example 292, rac-2-(N-[4-amino-5-[4-(2-hydroxyethoxy)benzoyl]thiazol-2-yl]-4-fluoro-anilino)propanamide]
4 | 5.51 µM | CC(C(N)=O)N(c1ccc(F)cc1)c1nc(N)c(C(=O)c2ccc(C#N)c(F)c2)s1 (single isomer, unassigned) [Example 21.1, 2-(N-[4-amino-5-(4-cyano-3-fluoro-benzoyl)thiazol-2-yl]-4-fluoro-anilino)propanamide]
5 | 8.65 µM | CC(C(N)=O)N(c1ccc(OC(F)(F)F)cc1)c1nc(N)c(C(=O)c2ccc(F)cc2)s1 (single isomer, unassigned) [Example 27.1, 2-[N-[4-amino-5-(4-fluorobenzoyl)thiazol-2-yl]-4-(trifluoromethoxy)anilino]propanamide]
6 | 0.0436 µM | CC(C(N)=O)N(c1ccc(OC(F)(F)F)cc1)c1nc(N)c(C(=O)c2ccc(F)cc2)s1 (single isomer, unassigned) [Example 27.2, 2-[N-(4-amino-5-(4-fluorobenzoyl)thiazol-2-yl]-4-(trifluoromethoxy)anilino]propanamide]
7 | 8.61 µM | CC(C(N)=O)N(c1ccc(F)cc1)c1nc(N)c(C(=O)c2ccc(C#N)cc2)s1 (single isomer, unassigned) [Example 33.1, 2-(N-[4-amino-5-(4-cyanobenzoyl)thiazol-2-yl]-4-fluoro-anilino)propanamide]
8 | 0.0228 µM | CC(C(N)=O)N(c1ccc(F)cc1)c1nc(N)c(C(=O)c2ccc(C#N)cc2)s1 (single isomer, unassigned) [Example 33.2, 2-(N-[4-amino-5-(4-cyanobenzoyl)thiazol-2-yl]-4-fluoro-anilino)propanamide]
9 | 2 µM | CC(C(N)=O)N(c1ccc(Cl)cc1)c1nc(N)c(C(=O)c2ccc(F)cc2)s1 (single isomer, unassigned) [Example 37.1, 2-(N-[4-amino-5-(4-fluorobenzoyl)thiazol-2-yl]-4-chloro-anilino)propanamide]
10 | 0.00946 µM | CC(C(N)=O)N(c1ccc(Cl)cc1)c1nc(N)c(C(=O)c2ccc(F)cc2)s1 (single isomer, unassigned) [Example 37.2, 2-(N-[4-amino-5-(4-fluorobenzoyl)thiazol-2-yl]-4-chloro-anilino)propanamide]
11 | 2 µM | CC(C(N)=O)N(c1ccc(F)cc1)c1nc(N)c(C(=O)c2ccc(Cl)cc2)s1 (single isomer, unassigned) [Example 38.1, 2-(N-[4-amino-5-(4-chlorobenzoyl)thiazol-2-yl]-4-fluoro-anilino)propanamide]
12 | 0.792 µM | CC(C(N)=O)N(c1ccc(F)cc1)c1nc(N)c(C(=O)c2ccc(OC(F)(F)F)cc2)s1 (single isomer, unassigned) [Example 40.1, 2-(N-[4-amino-5-[4-(trifluoromethoxy)benzoyl]thiazol-2-yl]-4-fluoro-anilino)propanamide]
13 | 0.00708 µM | CC(C(N)=O)N(c1ccc(F)cc1)c1nc(N)c(C(=O)c2ccc(OC(F)(F)F)cc2)s1 (single isomer, unassigned) [Example 40.2, 2-(N-[4-amino-5-[4-(trifluoromethoxy)benzoyl]thiazol-2-yl]-4-fluoro-anilino)propanamide]
14 | 2.93 µM | CC(C(N)=O)N(c1ccc(Cl)cc1)c1nc(N)c(C(=O)c2ccc(Cl)cc2)s1 (single isomer, unassigned) [Example 41.1, 2-(N-[4-amino-5-(4-chlorobenzoyl)thiazol-2-yl]-4-chloro-anilino)propanamide]
15 | 0.00773 µM | CC(C(N)=O)N(c1ccc(Cl)cc1)c1nc(N)c(C(=O)c2ccc(Cl)cc2)s1 (single isomer, unassigned) [Example 41.2, 2-(N-[4-amino-5-(4-chlorobenzoyl)thiazol-2-yl]-4-chloro-anilino)propanamide]
16 | 2.73 µM | CC(C(N)=O)N(c1ccc(C(F)(F)F)cc1)c1nc(N)c(C(=O)c2ccc(OC(F)F)cc2)s1 (single isomer, unassigned) [Example 43.1, 2-[N-[4-amino-5-[4-(difluoromethoxy)benzoyl]thiazol-2-yl)-4-(trifluoromethyl)anilino]propanamide]
17 | 0.00593 µM | CC(C(N)=O)N(c1ccc(C(F)(F)F)cc1)c1nc(N)c(C(=O)c2ccc(OC(F)F)cc2)s1 (single isomer, unassigned) [Example 43.2]
18 | 0.201 µM | CC(Oc1ccc(C(=O)c2sc(N(c3ccccc3)C(C)C(N)=O)nc2N)cc1)C(N)=O (single isomer, unassigned) [Example 45.1, 2-(N-[4-amino-5-[4-[2-amino-1-methyl-2-oxo-ethoxy]benzoyl]thiazol-2-yl]anilino)propanamide]
19 | 8.91 µM | CC(Oc1ccc(C(=O)c2sc(N(c3ccccc3)C(C)C(N)=O)nc2N)cc1)C(N)=O (single isomer, unassigned) [Example 45.2, 2-(N-[4-amino-5-[4-[2-amino-1-methyl-2-oxo-ethoxy]benzoyl]thiazol-2-yl]anilino)propanamide]
20 | 1.05 µM | CC(Oc1ccc(C(=O)c2sc(N(c3ccccc3)C(C)C(N)=O)nc2N)cc1)C(N)=O (single isomer, unassigned) [Example 45.3, 2-(N-[4-amino-5-[4-[2-amino-1-methyl-2-oxo-ethoxy]benzoyl]thiazol-2-yl]anilino)propanamide]
21 | > 20 µM | CC(Oc1ccc(C(=O)c2sc(N(c3ccccc3)C(C)C(N)=O)nc2N)cc1)C(N)=O (single isomer, unassigned) [Example 45.4, 2-(N-[4-amino-5-[4-[2-amino-1-methyl-2-oxo-ethoxy]benzoyl]thiazol-2-yl]anilino)propanamide]
22 | 1.47 µM | CC(C(N)=O)N(c1nc(N)c(C(=O)c2ccc(OC(F)F)cc2)s1)c1ccc(Cl)cc1F (single isomer, unassigned) [Example 46.1, 2-(N-[4-amino-5-[4-(difluoromethoxy)benzoyl]thiazol-2-yl]-4-chloro-2-fluoro-anilino)propanamide]
23 | 0.00569 µM | CC(C(N)=O)N(c1nc(N)c(C(=O)c2ccc(OC(F)F)cc2)s1)c1ccc(Cl)cc1F (single isomer, unassigned) [Example 46.2, 2-(N-[4-amino-5-[4-(difluoromethoxy)benzoyl]thiazol-2-yl]-4-chloro-2-fluoro-anilino)propanamide]
24 | 1.02 µM | CC(C(N)=O)N(c1ccc(Cl)cc1)c1nc(N)c(C(=O)c2ccc(OC(F)F)cc2)s1 (single isomer, unassigned) [Example 47.1, 2-(N-[4-amino-5-[4-(difluoromethoxy)benzoyl]thiazol-2-yl]-4-chloro-anilino)propanamide]
25 | 0.00196 µM | CC(C(N)=O)N(c1ccc(Cl)cc1)c1nc(N)c(C(=O)c2ccc(OC(F)F)cc2)s1 (single isomer, unassigned) [Example 47.2, 2-(N-[4-amino-5-[4-(difluoromethoxy)benzoyl]thiazol-2-yl]-4-chloro-anilino)propanamide]
26 | 0.00176 µM | CC(C(N)=O)N(c1ccc(Cl)c(F)c1)c1nc(N)c(C(=O)c2ccc(OC(F)F)cc2)s1 (single isomer, unassigned) [Example 48.1, 2-(N-[4-amino-5-[4-(difluoromethoxy)benzoyl]thiazol-2-yl]-4-chloro-3-fluoro-anilino)propanamide]
27 | 0.12 µM | CC(C(N)=O)N(c1ccc(Cl)c(F)c1)c1nc(N)c(C(=O)c2ccc(OC(F)F)cc2)s1 (single isomer, unassigned) [Example 48.2, 2-(N-[4-amino-5-[4-(difluoromethoxy)benzoyl]thiazol-2-yl]-4-chloro-3-fluoro-anilino)propanamide]
28 | 0.127 µM | CC(C(N)=O)N(c1ccc(F)c(F)c1)c1nc(N)c(C(=O)c2ccncc2)s1 (single isomer, unassigned) [Example 50.1, 2-(N-[4-amino-5-(pyridine-4-carbonyl)thiazol-2-yl]-3,4-difluoro-anilino)propanamide]

Row | Structure (SMILES) | IC50
29 | CC(C(N)=O)N(c1ccc(F)cc1)c1nc(N)c(C(=O)c2ccc(N3CCC(C)(C#N)CC3)nc2)s1 (racemic) [Example 285, rac-2-(N-[4-amino-5-[6-(4-cyano-4-methyl-1-piperidy!)pyridine-3-carbonyl]thiazol-2-yl]-4-fluoro-anilino)propanamide] | 0.068 µM
30 | CC(C(N)=O)N(c1ccc(F)cc1)c1nc(N)c(C(=O)c2ccc(C(F)(F)F)nc2)s1 (single isomer, unassigned) [Example 29.1, 2-(N-[4-amino-5-[6-(trifluoromethyl)pyridine-3-carbonyl]thiazol-2-yl]-4-fluoro-anilino)propanamide] | 12.5 µM
31 | CC(C(N)=O)N(c1ccc(F)cc1)c1nc(N)c(C(=O)c2ccc(C(F)(F)F)nc2)s1 (single isomer, unassigned) [Example 29.2, 2-(N-[4-amino-5-[6-(trifluoromethyl)pyridine-3-carbonyl]thiazol-2-yl]-4-fluoro-anilino)propanamide] | 0.0462 µM
32 | CC(C(N)=O)N(c1ccc(F)cc1)c1nc(N)c(C(=O)c2ccc(OC(F)F)cc2)s1 (single isomer, unassigned) [Example 44.1, 2-(N-[4-amino-5-[4-(difluoromethoxy)benzoyl]thiazol-2-yl]-4-fluoro-anilino)propanamide] | 1.39 µM
33 | CC(C(N)=O)N(c1ccc(F)cc1)c1nc(N)c(C(=O)c2ccc(OC(F)F)cc2)s1 (single isomer, unassigned) [Example 44.2, 2-(N-[4-amino-5-[4-(difluoromethoxy)benzoyl]thiazol-2-yl]-4-fluoro-anilino)propanamide] | 0.00672 µM
